Laboratory results from patent US4332820A, “Substituted benzonitriles having antiviral activity” (The Dow Chemical Company, priority 1980, dated 1982).
In brackets after ≈: the same amount, converted by molar mass.

How the values were obtained:
[1] = system: Cox A21; assay: Single Oral Dose test in mice challenged with Cox A21; assay type: in vivo, Swiss male mice; conditions: po, 600 mg/kg, 3 h
[2] = system: Coxsackie A21 virus; assay: Continuous Oral Feeding test in mice challenged with Coxsackie A21; assay type: in vivo; conditions: for X^2 (Continuous Oral Feeding, chi-square of deaths): 0.06 % in diet, 240 h, 0.06 % strength
[3] = system: Coxsackie A21 virus (Cox A21); assay: Tissue culture antiviral testing, Cox A21 (cytopathic effect, HeLa cells); assay type: cell-based; conditions: for EC50: HeLa cells, NA = not active at the standard test conditions, read-out: Lowest concentration of the compound necessary to cause a 50 percent reduction in cytopathic effect
[4] = system: rhinovirus type 2 (RV-2); assay: Tissue culture antiviral testing, RV-2 (cytopathic effect, HeLa cells); assay type: cell-based; conditions: for EC50: Enterovirus, HeLa cells, NA = not active at the standard test conditions, read-out: Lowest concentration of the compound necessary to cause a 50 percent reduction in cytopathic effect
[5] = Cytotoxicity in tissue culture (HeLa monolayers); assay type: cell-based; conditions: human; HeLa cells; observed at 48 and 72 hours post-treatment; read-out: Cytotoxicity (concentration of the compound found to be toxic to the cell)
[6] = system: rhinovirus type 1A (RV-1A); assay: Tissue culture antiviral testing, RV-1A (cytopathic effect, HeLa cells); assay type: cell-based; conditions: for EC50: Enterovirus, HeLa cells, NA = not active at the standard test conditions, read-out: Lowest concentration of the compound necessary to cause a 50 percent reduction in cytopathic effect
[7] = system: rhinovirus type 8 (RV-8); assay: Tissue culture antiviral testing, RV-8 (cytopathic effect, HeLa cells); assay type: cell-based; conditions: for EC50: Enterovirus, HeLa cells, read-out: Lowest concentration of the compound necessary to cause a 50 percent reduction in cytopathic effect
[8] = system: rhinovirus type 5 (RV-5); assay: Tissue culture antiviral testing, RV-5 (cytopathic effect, HeLa cells); assay type: cell-based; conditions: for EC50: Enterovirus, HeLa cells, read-out: Lowest concentration of the compound necessary to cause a 50 percent reduction in cytopathic effect
[9] = system: rhinovirus type 64 (RV-64); assay: Tissue culture antiviral testing, RV-64 (cytopathic effect, HeLa cells); assay type: cell-based; conditions: for EC50: Enterovirus, HeLa cells, NA = not active at the standard test conditions, read-out: Lowest concentration of the compound necessary to cause a 50 percent reduction in cytopathic effect

Structure (SMILES) | X^2 (Continuous Oral Feeding, chi-square of deaths) [2] | EC50 [3] [µg/mL] | EC50 [4] [µg/mL] | MCC [5] [µg/mL] | EC50 [6] [µg/mL] | EC50 [7] [µg/mL] | EC50 [8] [µg/mL] | EC50 [9] [µg/mL] | other results
N#Cc1cc([N+](=O)[O-])ccc1Oc1ccc(Oc2ccccc2)cc1 [Example 5, 2-(4-Phenoxyphenoxy)-5-nitrobenzonitrile] | 0.26 | < 6.25 | 50 (≈ 150 µM) | > 100 |  |  |  |  | X^2 (Single Oral Dose, chi-square of deaths vs virus control) [1]: 0.719
N#Cc1cc([N+](=O)[O-])ccc1Oc1ccccc1C(F)(F)F [Example 26, 2-((2-Trifluoromethyl)phenoxy)-5-nitrobenzonitrile] |  | 10 (≈ 32.4 µM) | 1.25 (≈ 4.06 µM) | ≥ 20 |  |  |  |  | 
N#Cc1cc([N+](=O)[O-])ccc1Oc1ccc(C(F)(F)F)cc1 [Example 14, 2-((4-Trifluoromethyl)phenoxy)-5-nitrobenzonitrile] |  | 0.625 (≈ 2.03 µM) | 0.312 (≈ 1.01 µM) | ≥ 50 | 3.12 (≈ 10.1 µM) | 0.312 (≈ 1.01 µM) | 2.5 (≈ 8.11 µM) | 0.625 (≈ 2.03 µM) | 
N#Cc1cc([N+](=O)[O-])ccc1Oc1cc(Cl)cc(Cl)c1Cl [Example 30, 2-(2,3,5-Trichlorophenoxy)-5-nitrobenzonitrile] |  |  | 2.5 (≈ 7.28 µM) | > 20 | 2.5 (≈ 7.28 µM) |  |  |  | 
N#Cc1cc([N+](=O)[O-])ccc1Oc1c(Cl)ccc(Cl)c1Cl [Example 31, 2-(2,3,6-Trichlorophenoxy)-5-nitrobenzonitrile] |  | 5 (≈ 14.6 µM) | 1.25 (≈ 3.64 µM) | > 20 | 2.5 (≈ 7.28 µM) | < 3.12 | 3.12 (≈ 9.1 µM) | 3.12 (≈ 9.1 µM) | 
N#Cc1cc([N+](=O)[O-])ccc1Oc1c(F)c(F)c(F)c(F)c1F [Example 19, 2-(2,3,4,5,6-Pentafluorophenoxy)-5-nitrobenzonitrile] |  | 6.25 (≈ 18.9 µM) | ≤ 3.12 | 12.5 | 6.25 (≈ 18.9 µM) | 1.25 (≈ 3.79 µM) | 1.25 (≈ 3.79 µM) | 0.312 (≈ 0.946 µM) | 
CN(C)S(=O)(=O)c1ccc(Oc2ccc([N+](=O)[O-])cc2C#N)cc1 [Example 9, N,N-Dimethyl-4-(2-cyano-4-nitrophenoxy)benzenesulfonamide] | 9.03 | < 6.25 |  | > 100 |  |  |  |  | 
N#Cc1cc([N+](=O)[O-])ccc1Oc1cc(Cl)c(Cl)c(Cl)c1 [Example 17, 2-(3,4,5-Trichlorophenoxy)-5-nitrobenzonitrile] |  | 1.25 (≈ 3.64 µM) | 1.25 (≈ 3.64 µM) | 10 | 2.5 (≈ 7.28 µM) |  |  |  | 
N#Cc1cc([N+](=O)[O-])ccc1Sc1ccc(Cl)cc1 [Example 12, 2-((4-Chlorophenyl)thio)-5-nitrobenzonitrile] | 0.215 | 1.6 (≈ 5.5 µM) | ≤ 1.6 | 25 | ~3.12 (≈ 10.7 µM) |  |  |  | X^2 (Single Oral Dose, chi-square of deaths vs virus control) [1]: 4.805
CSc1ccc(Oc2ccc([N+](=O)[O-])cc2C#N)cc1 [Example 6, 2-(4-(Methylthio)phenoxy)-5-nitrobenzonitrile] | 6.91 | < 6.25 | ≤ 6.25 | 100 |  |  |  |  | X^2 (Single Oral Dose, chi-square of deaths vs virus control) [1]: 0.609
CS(=O)(=O)c1ccc(Oc2ccc([N+](=O)[O-])cc2C#N)cc1 [Example 8, 2-(4-(Methylsulfonyl)phenoxy)-5-nitrobenzonitrile] | 10.45 | < 6.25 | 12.5 (≈ 39.3 µM) | > 100 |  |  |  |  | X^2 (Single Oral Dose, chi-square of deaths vs virus control) [1]: 0.095
CCN(CC)S(=O)(=O)c1ccc(Oc2ccc([N+](=O)[O-])cc2C#N)cc1 [Example 10, N,N-Diethyl-4-(2-cyano-4-nitrophenoxy)benzenesulfonamide] | 2.84 | < 6.25 |  | > 100 | ~50 (≈ 133 µM) |  |  |  | 
N#Cc1cc([N+](=O)[O-])ccc1Oc1ccc(Br)cc1 [Example 3, 2-(4-Bromophenoxy)-5-nitrobenzonitrile] | 5.81 | 2.5 (≈ 7.83 µM) | 1.25 (≈ 3.92 µM) | > 100 | 1.25 (≈ 3.92 µM) |  |  |  | X^2 (Single Oral Dose, chi-square of deaths vs virus control) [1]: 2.139
N#Cc1cc([N+](=O)[O-])ccc1Oc1c(F)c(F)cc(F)c1F [Example 18, 2-(2,3,5,6-Tetrafluorophenoxy)-5-nitrobenzonitrile] |  | 3.12 (≈ 10 µM) | < 3.12 | 12.5 | 3.12 (≈ 10 µM) | 1.25 (≈ 4 µM) | 1.25 (≈ 4 µM) | 0.312 (≈ 1 µM) | 
N#Cc1cc([N+](=O)[O-])ccc1Oc1cc(Cl)cc(Cl)c1 [Example 25, 2-(3,5-Dichlorophenoxy)-5-nitrobenzonitrile] |  |  | 3.12 (≈ 10.1 µM) | > 50 | 6.25 (≈ 20.2 µM) | 3.12 (≈ 10.1 µM) | 6.25 (≈ 20.2 µM) | 25 (≈ 80.9 µM) | 
Cc1cc(Cl)ccc1Oc1ccc([N+](=O)[O-])cc1C#N [Example 16, 2-(4-Chloro-2-methylphenoxy)-5-nitrobenzonitrile] |  | 12.5 (≈ 43.3 µM) | 3.12 (≈ 10.8 µM) | > 50 | 12.5 (≈ 43.3 µM) | 3.12 (≈ 10.8 µM) | 6.25 (≈ 21.6 µM) |  | 
COc1cccc(Oc2ccc([N+](=O)[O-])cc2C#N)c1 [Example 13, 2-(3-Methoxyphenoxy)-5-nitrobenzonitrile] |  | < 3.12 | ≤ 3.12 | > 50 | 6.25 (≈ 23.1 µM) | 3.12 (≈ 11.6 µM) | 6.25 (≈ 23.1 µM) | 12.5 (≈ 46.3 µM) | 
N#Cc1cc([N+](=O)[O-])ccc1Oc1cccc(C(F)(F)F)c1 [Example 27, 2-((3-Trifluoromethyl)phenoxy)-5-nitrobenzonitrile] |  | 1.25 (≈ 4.06 µM) | 0.625 (≈ 2.03 µM) | 12.5 | 2.5 (≈ 8.11 µM) | 1.25 (≈ 4.06 µM) | 0.625 (≈ 2.03 µM) | 0.625 (≈ 2.03 µM) | 
N#Cc1cc([N+](=O)[O-])ccc1Sc1ccc(Cl)c(Cl)c1 [Example 20, 2-((3,4-Dichlorophenyl)thio)-5-nitrobenzonitrile] |  | ~2.5 (≈ 7.69 µM) | 2.5 (≈ 7.69 µM) | 10 |  |  |  |  | 
N#Cc1cc([N+](=O)[O-])ccc1Oc1cc(Cl)ccc1Cl [Example 23, 2-(2,5-Dichlorophenoxy)-5-nitrobenzonitrile] |  | 6.25 (≈ 20.2 µM) | < 3.12 | > 50 | 3.12 (≈ 10.1 µM) | < 6.25 | ≤ 6.25 | 3.12 (≈ 10.1 µM) | 
N#Cc1cc([N+](=O)[O-])ccc1Oc1c(Cl)cccc1Cl [Example 24, 2-(2,6-Dichlorophenoxy)-5-nitrobenzonitrile] |  | 12.5 (≈ 40.4 µM) | ≤ 3.12 | > 50 | 3.12 (≈ 10.1 µM) | ≤ 3.12 | 3.12 (≈ 10.1 µM) | 3.12 (≈ 10.1 µM) | 
C[S+]([O-])c1ccc(Oc2ccc([N+](=O)[O-])cc2C#N)cc1 (centres unmarked) [Example 7, 2-(4-(Methylsulfinyl)phenoxy)-5-nitrobenzonitrile] | 18.82 | < 6.25 | 6.25 (≈ 20.7 µM) | 50 |  |  |  |  | X^2 (Single Oral Dose, chi-square of deaths vs virus control) [1]: 18.94
CC(=O)c1ccc(Oc2ccc([N+](=O)[O-])cc2C#N)cc1 [Example 15, 2-(4-Acetylphenoxy)-5-nitrobenzonitrile] |  | < 3.12 | 3.12 (≈ 11.1 µM) | > 50 | 6.25 (≈ 22.1 µM) | 3.12 (≈ 11.1 µM) | 6.25 (≈ 22.1 µM) | 6.25 (≈ 22.1 µM) | 
N#Cc1cc([N+](=O)[O-])ccc1Oc1ccc(F)cc1 [Example 21, 2-(4-Fluorophenoxy)-5-nitrobenzonitrile] | 10.513 | 0.625 (≈ 2.42 µM) | < 0.625 | 10 | 0.625 (≈ 2.42 µM) | 0.625 (≈ 2.42 µM) | 1.25 (≈ 4.84 µM) | 0.625 (≈ 2.42 µM) | 
N#Cc1cc(Oc2ccc(Cl)c(Cl)c2)ccc1[N+](=O)[O-] [5-(3,4-dichlorophenoxy)-2-nitrobenzonitrile, reference compound] |  |  |  |  |  |  |  |  | concentration required to produce a 50% reduction in cytopathic effect, compared with 2-(3,4-dichlorophenoxy)-5-nitrobenzonitrile ([6]; in words): higher concentrations; antiviral activity at the test concentrations employed ([7]; in words): not active; antiviral activity at the test concentrations employed ([8]; in words): not active; antiviral activity in the "Continuous Oral Feeding" test ([2]; in words, 95% confidence level): failed to exhibit antiviral activity; concentration required to produce a 50% reduction in cytopathic effect, compared with 2-(3,4-dichlorophenoxy)-5-nitrobenzonitrile ([3]; in words): higher concentrations; concentration required to produce a 50% reduction in cytopathic effect, compared with 2-(3,4-dichlorophenoxy)-5-nitrobenzonitrile ([4]; in words): higher concentrations; antiviral activity at the test concentrations employed ([9]; in words): not active
N#Cc1cc([N+](=O)[O-])ccc1Oc1cc(C(F)(F)F)cc(C(F)(F)F)c1 [Example 28, 2-(3,5-bis(Trifluoromethyl)phenoxy)-5-nitrobenzonitrile] |  | 10 (≈ 26.6 µM) | 2.5 (≈ 6.65 µM) | ≥ 20 |  |  |  |  | 
N#Cc1cc([N+](=O)[O-])ccc1Oc1cccc(Cl)c1Cl [Example 22, 2-(2,3-Dichlorophenoxy)-5-nitrobenzonitrile] |  | < 3.12 | < 3.12 | > 50 | < 3.12 |  |  | < 3.12 | 
N#Cc1cc([N+](=O)[O-])ccc1Oc1ccc(C(=O)c2ccccc2)cc1 [Example 11, 2-(4-Benzoylphenoxy)-5-nitrobenzonitrile] |  | 12.5 (≈ 36.3 µM) | ~100 (≈ 290 µM) | > 100 |  |  |  |  | X^2 (Single Oral Dose, chi-square of deaths vs virus control) [1]: 0.64
N#Cc1cc([N+](=O)[O-])ccc1Oc1ccc(Cl)c(Cl)c1Cl [Example 29, 2-(2,3,4-Trichlorophenoxy)-5-nitrobenzonitrile] |  | ~5 (≈ 14.6 µM) | 1.25 (≈ 3.64 µM) | > 20 | ~10 (≈ 29.1 µM) |  |  |  | 
